10 compounds from PubChem BioAssay (NCI) can be followed below.

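The compound was tested at five concentrations on cells cultured in 96-well plates, with a 48-hour exposure period. GI50: concentration for 50% inhibition of growth. TGI: total growth inhibition.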 Where only a bound is given, the exact number is not on record here.

Among the test systems are ACHN renal; SK-MEL-28 melanoma; SF-268 CNS; UACC-62 melanoma; OVCAR-4 ovarian; SF-539 CNS; HCT-116 colon; NCI-H522 lung; SW-620 colon.
Holding throughout (experiment): NCI-60 cell line screen, 48 h

`COc1cc(O)c(C(=O)CC(C)=O)c(OC)c1`: the TGI in the experiment with ACHN renal, in the experiment with SK-MEL-28 melanoma, in the experiment with SF-268 CNS, in the experiment on UACC-62 melanoma, with OVCAR-4 ovarian and in the experiment on SF-539 CNS was greater than 100 µM each time. Moreover, the TGI with HCT-116 colon, with NCI-H522 lung and in the experiment with SW-620 colon was greater than 100 µM in each case.
Turning to `CSC(=Nc1ccccc1Cl)NC(=O)c1ccc(Br)cc1`, the TGI was greater than 100 µM in the experiment with ACHN renal; 66.3 µM with SK-MEL-28 melanoma; greater than 100 µM in the experiment with SF-268 CNS; greater than 100 µM in the experiment with UACC-62 melanoma; 38.4 µM in the experiment with OVCAR-4 ovarian; greater than 100 µM in the experiment with SF-539 CNS. In addition, the TGI with HCT-116 colon, with NCI-H522 lung and in the experiment on SW-620 colon was greater than 100 µM in each case.
For the compound `CCCCCCCCCCCC[N+](C)(C)Cc1ccccc1`, the GI50 in the experiment with ACHN renal is 5.61 µM; in the experiment with SK-MEL-28 melanoma it was 2.06 µM; in the experiment on SF-268 CNS, 2.02 µM; in the experiment on OVCAR-4 ovarian, 1.82 µM; in the experiment with SF-539 CNS it was 1.66 µM; in the experiment on HCT-116 colon, 1.33 µM. Besides, the GI50 in the experiment on NCI-H522 lung was 1.53 µM; in the experiment on SW-620 colon, 2.69 µM. Besides, the TGI in the experiment on ACHN renal came out at 20.4 µM; with SK-MEL-28 melanoma, 4.34 µM; in the experiment on SF-268 CNS, 4.45 µM; with OVCAR-4 ovarian, 7.68 µM; in the experiment with SF-539 CNS, 3.17 µM; with HCT-116 colon, 2.8 µM. Moreover, the values for the TGI in the experiment on NCI-H522 lung and with SW-620 colon were 3.95 µM and 12.1 µM, respectively.
Turning to `CC(C)=O.O=C([O-])C(F)(F)F.O=C([O-])C(F)(F)F.O=C([O-])C(F)(F)F.O=C([O-])C(F)(F)F.[Rh+2].[Rh+2]`, the GI50 was 50.5 µM with ACHN renal; 94.3 µM in the experiment on SK-MEL-28 melanoma; greater than 100 µM in the experiment on SF-268 CNS; greater than 100 µM in the experiment with UACC-62 melanoma; 69.7 µM in the experiment with OVCAR-4 ovarian; greater than 100 µM in the experiment on SF-539 CNS. The GI50 was 54 µM in the experiment on HCT-116 colon and 65.2 µM in the experiment with SW-620 colon. Moreover, the TGI with ACHN renal, in the experiment with SK-MEL-28 melanoma, with SF-268 CNS, with UACC-62 melanoma, with OVCAR-4 ovarian and in the experiment with SF-539 CNS was greater than 100 µM each time. The TGI in the experiment with HCT-116 colon and with SW-620 colon was greater than 100 µM each time.
On to `COc1cc(OC)cc(-c2nc3sccn3c2/C=N/N=C(N)N)c1`, for which the GI50 was 8.58 µM with ACHN renal; 10.2 µM in the experiment with SF-268 CNS; 8.03 µM in the experiment with UACC-62 melanoma; 8.26 µM in the experiment on SF-539 CNS; 15.4 µM with NCI-H522 lung; 10 µM in the experiment with SW-620 colon. Moreover, the TGI with ACHN renal is 17.5 µM; in the experiment on SF-268 CNS it was 27.2 µM; in the experiment on UACC-62 melanoma, 14.8 µM; in the experiment with SF-539 CNS, 15.7 µM; in the experiment on NCI-H522 lung, greater than 50 µM; with SW-620 colon it was 19.1 µM.
Take `O=C(Nc1cc(Cl)ccc1Cl)c1cc2cccc(Br)c2oc1=O`: the TGI with ACHN renal, with SK-MEL-28 melanoma, in the experiment with UACC-62 melanoma, in the experiment on SF-539 CNS, in the experiment on HCT-116 colon and in the experiment on NCI-H522 lung was greater than 100 µM throughout. Moreover, in the experiment on SW-620 colon, the TGI was greater than 100 µM.
Regarding `S=c1nc(C(c2ccccc2)c2ccccc2)[nH][nH]1`, the TGI with ACHN renal, in the experiment on SK-MEL-28 melanoma, in the experiment with SF-268 CNS, in the experiment on UACC-62 melanoma, in the experiment with SF-539 CNS and in the experiment on HCT-116 colon was greater than 100 µM throughout. Besides, the TGI with NCI-H522 lung and in the experiment on SW-620 colon was greater than 100 µM throughout.
For the compound `CCO/C(CCn1[nH]c(=O)c(Cl)c(Cl)c1=O)=N\NC(=O)C(=O)NN`, the TGI in the experiment on ACHN renal, in the experiment with SK-MEL-28 melanoma, with SF-268 CNS, in the experiment with UACC-62 melanoma, with OVCAR-4 ovarian and in the experiment with SF-539 CNS was greater than 100 µM throughout. For the same compound, the TGI with NCI-H522 lung and in the experiment on SW-620 colon was greater than 100 µM throughout.
`C=C(C)[C@@H]1C/C=C(/CO)CC[C@H]2O[C@]2(C)CC/C=C(\C)CC1`: the GI50 in the experiment with ACHN renal was 29.5 µM; in the experiment with SK-MEL-28 melanoma, 14.3 µM; in the experiment on SF-268 CNS, 19.9 µM; in the experiment with UACC-62 melanoma it was 15.1 µM; with OVCAR-4 ovarian, 16.3 µM; with SF-539 CNS, 18 µM. Besides, the figures for the GI50 in the experiment on HCT-116 colon, with NCI-H522 lung and with SW-620 colon were 19.3 µM, 16.1 µM and 26.3 µM, respectively. In addition, the TGI with ACHN renal was greater than 100 µM; in the experiment on SK-MEL-28 melanoma it was 32.1 µM; in the experiment on SF-268 CNS it was 38.2 µM; in the experiment with UACC-62 melanoma, 35.6 µM; with OVCAR-4 ovarian it was 34.1 µM; in the experiment with SF-539 CNS it was 33.7 µM. The figures for the TGI in the experiment with HCT-116 colon, in the experiment on NCI-H522 lung and with SW-620 colon were 38.3 µM, 32.1 µM and 61.5 µM, respectively.
Turning to `Cc1cc(C)nc(NS(=O)(=O)c2ccc(Nc3c4ccccc4nc4c(C(=O)Nc5ccc(S(=O)(=O)Nc6cc(C)on6)cc5)ccc(Cl)c34)cc2)n1`, the TGI was greater than 100 µM in the experiment on ACHN renal; 69.4 µM in the experiment on SK-MEL-28 melanoma; greater than 100 µM in the experiment on SF-268 CNS; 80.1 µM in the experiment with UACC-62 melanoma; 65.3 µM in the experiment on OVCAR-4 ovarian; 53 µM in the experiment with SF-539 CNS. Also, the TGI is 40.5 µM in the experiment with HCT-116 colon and 51.4 µM in the experiment on NCI-H522 lung.
